Source: patent US7763602B2, “Pyrrole derivatives as antimycobacterial compounds” (priority 2002, dated 2010)
≈ marks a conversion by molar mass, not a printed value. Like-named read-outs stand apart in the source and are kept apart here.

Key:
[1] = system: M. tuberculosis H37Rv ATCC 27294; assay: In vitro growth inhibition assay, BACTEC 460 TB system; assay type: cell-based, Mycobacterium tuberculosis; parameters: key: +: If ΔGI of test vial is less than that of the control vial the culture was sensitive to the test compound; settings: final concentration 6.25 μg/ml
M. tuberculosis 27294 = assay: In vitro agar dilution assay (MIC), reference strain; assay type: cell-based, Mycobacterium tuberculosis; settings: for MIC: Mycobacterium tuberculosis, 27294, Table I, read-out: MIC (μg/ml) against M. tuberculosis-27294
[2] = system: M. tuberculosis clinical isolates, sensitive; assay: microbe, parasite or virus in culture; assay type: cell-based, Mycobacterium tuberculosis; settings: for MIC: Mycobacterium tuberculosis
[3] = system: M. avium-intracellulare complex; assay: In vitro agar dilution assay (MIC), M. avium-intracellulare complex; assay type: cell-based; settings: Mycobacterium avium-intracellulare; Table II; 13 strains; read-out: MIC (μg/ml) M. avium-intracellulare complex (n = 13)
M. fortuitum = assay: In vitro agar dilution assay (MIC), M. fortuitum; assay type: cell-based, Mycobacterium fortuitum; settings: Mycolicibacterium fortuitum, read-out: MIC (μg/ml) M. fortuitum (n = 8)
M. kansasii = assay: In vitro agar dilution assay (MIC), M. kansasii; assay type: cell-based; settings: Mycobacterium kansasii, read-out: MIC (μg/ml) M. kansasii (n = 2)
[4] = Acute toxicity study in mice; assay type: in vivo, Swiss albino mice; settings: for LD0: single oral dose, mice
Description: Compound No. 3 of formula (I) was administered, as a single oral dose, in Swiss albino mice. Two dose levels of 500 and 2000 mg/kg were employed. […] Therefore LD0 was >2000 mg/kg by oral route in mice. […] Similarly in compound No. 12 of Formula I, LD0 was >500 mg/kg by oral route in mice.

[5] = system: M. tuberculosis H37Rv ATCC 27294; assay: Murine model of pulmonary tuberculosis, treated 01 day post-infection; settings: for Mean Log10 No. of CFU Lung / Mean Log10 No. of CFU Spleen: 5 day/week for 4 week; for Mean Log10 no. of reduction Lung / Mean Log10 no. of reduction Spleen / Mean Log10 No. of reduction Lung / Mean Log10 No. of reduction Spleen: difference from early controls
[6] = system: M. tuberculosis H37Rv ATCC 27294; assay: Murine model of pulmonary tuberculosis, treated 14 days post-infection; settings: Table IV; for Mean Log10 No. of CFU Lung / Mean Log10 No. of CFU Spleen: 5 day/week for 4 week, treated 14 days post-infection; for Mean Log10 no. of reduction Lung / Mean Log10 no. of reduction Spleen: difference from early controls
[7] = system: M. tuberculosis strain 103471; settings: literature values; cited from earlier work
[8] = mice, oral route; cited from earlier work
[9] = read-out: MIC (μg/ml) against Clinical isolates Sensitive
[10] = read-out: MIC (μg/ml) M. tuberculosis Sensitive (n = 17)
[11] = Table III, 12.5 mg/kg gavage, treatment from 1 day after infection
[12] = Table III, 25 mg/kg gavage, treatment from 1 day after infection
[13] = Table III, 50 mg/kg gavage, treatment from 1 day after infection
[14] = Table VI, 12.5 mg/kg, treated 01 day post-infection
[15] = Table VI, 25 mg/kg, treated 01 day post-infection
[16] = Table VI, 50 mg/kg, treated 01 day post-infection

SMILES: COc1ccccc1N1CCN(Cc2cc(C)n(-c3ccc(F)cc3F)c2-c2ccccc2)CC1 [compound 56, 1-{[1-(2,4-difluorophenyl)-5-methyl-2-phenylpyrrol-3-yl]methyl}-4-(2-methoxyphenyl) piperazine]
- Growth inhibition of M. tuberculosis 27294 [1]: +
- MIC (M. tuberculosis 27294): 8 µg/mL (≈ 16.9 µM)
- MIC [2, 9]: 8 µg/mL (≈ 16.9 µM)
- melting point: 60 to 62 °C

SMILES: Cc1c(CN2CCN(c3cccc(C(F)(F)F)c3)CC2)cc(-c2ccc(Cl)cc2)n1-c1ccc(Cl)cc1 [Compound No. 3, 1-{[1,5-bis(4-chlorophenyl)-2-methylpyrrol-3-yl]methyl}-4-(3-trifluoromethylphenyl)piperazine]
- Growth inhibition of M. tuberculosis 27294 [1]: +
- MIC (M. tuberculosis 27294): 0.125 µg/mL (≈ 0.23 µM)
- MIC [2, 10]: 0.125 to 0.25 µg/mL (≈ 0.23 to 0.459 µM)
- MIC [2, 9]: 0.125 to 0.25 µg/mL (≈ 0.23 to 0.459 µM)
- MIC [3]: 4 to 8 µg/mL (≈ 7.35 to 14.7 µM)
- MIC (M. fortuitum; Table II, 8 strains): 4 to 8 µg/mL (≈ 7.35 to 14.7 µM)
- MIC (M. kansasii; Table II, 2 strains): 4 µg/mL (≈ 7.35 µM)
- Clinical symptoms or mortality ([4]; single oral dose 500 and 2000 mg/kg, Swiss albino mice, observed for 14 days): No clinical symptom or mortality was observed
- Pathological changes in organs ([4]; single oral dose 500 and 2000 mg/kg, mice sacrificed on day 15): no pathological changes were seen in any organ
- LD0 ([4]; observed for 14 days): > 2000 mg/kg
- Mean Log10 No. of CFU Lung [5, 11]: 2.63
- Mean Log10 No. of CFU Spleen [5, 11]: 2.6
- Mean Log10 no. of reduction Lung ([5]; Table III, 12.5 mg/kg): 1.85
- Mean Log10 no. of reduction Spleen ([5]; Table III, 12.5 mg/kg): 2.03
- Mean Log10 No. of CFU Lung [5, 12]: 2.13
- Mean Log10 No. of CFU Spleen [5, 12]: 2.07
- Mean Log10 no. of reduction Lung ([5]; Table III, 25 mg/kg): 2.35
- Mean Log10 no. of reduction Spleen ([5]; Table III, 25 mg/kg): 2.29
- Mean Log10 No. of CFU Lung [5, 13]: 1.97
- Mean Log10 No. of CFU Spleen [5, 13]: 1.94
- Mean Log10 no. of reduction Lung ([5]; Table III, 50 mg/kg): 2.51
- Mean Log10 no. of reduction Spleen ([5]; Table III, 50 mg/kg): 2.64

SMILES: Cc1c(CN2CCN(c3ccccn3)CC2)cc(-c2ccccc2)n1-c1ccc(F)cc1F [compound 54, 1-{[1-(2,4-difluorophenyl)-2-methyl-5-phenylpyrrol-3-yl]methyl}-4-(2-pyridyl) piperazine]
- Growth inhibition of M. tuberculosis 27294 [1]: +
- MIC (M. tuberculosis 27294): 2 µg/mL (≈ 4.5 µM)
- MIC [2, 9]: 4 µg/mL (≈ 9 µM)
- melting point: 144 to 146 °C

SMILES: Cc1c(CN2CCN(c3cccc(C(F)(F)F)c3)CC2)cc(-c2ccccc2)n1NC(=O)c1ccncc1 [Compound No. 12, N-(3-{[4-(3-trifluoromethylphenyl)piperazinyl]methyl}-2-methyl-5-phenylpyrrolyl)-4-pyridylcarboxamide]
- Growth inhibition of M. tuberculosis 27294 [1]: +
- MIC (μg/ml) against M. tuberculosis-27294 (M. tuberculosis 27294; Table I): 0.25 µg/mL (≈ 0.481 µM)
- MIC (μg/ml) against Clinical isolates Sensitive ([2]; Table I, agar dilution): 0.25 to 0.5 µg/mL
- LD0 ([4]; observed for 14 days): > 500 mg/kg
- Mean Log10 No. of CFU Lung [5, 14]: 2.34 ± 0.18
- Mean Log10 No. of CFU Spleen [5, 14]: 2.26 ± 0.21
- Mean Log10 No. of reduction Lung ([5]; Table VI, 12.5 mg/kg): 2.23
- Mean Log10 No. of reduction Spleen ([5]; Table VI, 12.5 mg/kg): 2.43
- Mean Log10 No. of CFU Lung [5, 15]: 2.1 ± 0.24
- Mean Log10 No. of CFU Spleen [5, 15]: 2.13 ± 0.28
- Mean Log10 No. of reduction Lung ([5]; Table VI, 25 mg/kg): 2.47
- Mean Log10 No. of reduction Spleen ([5]; Table VI, 25 mg/kg): 2.56
- Mean Log10 No. of CFU Lung [5, 16]: 1.89 ± 0.24
- Mean Log10 No. of CFU Spleen [5, 16]: 1.94 ± 0.23
- Mean Log10 No. of reduction Lung ([5]; Table VI, 50 mg/kg): 2.68
- Mean Log10 No. of reduction Spleen ([5]; Table VI, 50 mg/kg): 2.75
- Mean Log10 No. of CFU Lung ([6]; 12.5 mg/kg): 4.18 ± 0.38
- Mean Log10 No. of CFU Spleen ([6]; 12.5 mg/kg): 4.41 ± 0.26
- Mean Log10 no. of reduction Lung ([6]; 12.5 mg/kg): 1.41
- Mean Log10 no. of reduction Spleen ([6]; 12.5 mg/kg): 1.54
- Mean Log10 No. of CFU Lung ([6]; 25 mg/kg): 2.87 ± 0.15
- Mean Log10 No. of CFU Spleen ([6]; 25 mg/kg): 2.83 ± 0.29
- Mean Log10 no. of reduction Lung ([6]; 25 mg/kg): 2.72
- Mean Log10 no. of reduction Spleen ([6]; 25 mg/kg): 3.12
- Mean Log10 No. of CFU Lung ([6]; 50 mg/kg): 2.74 ± 0.36
- Mean Log10 No. of CFU Spleen ([6]; 50 mg/kg): 2.78 ± 0.32
- Mean Log10 no. of reduction Lung ([6]; 50 mg/kg): 2.85
- Mean Log10 no. of reduction Spleen ([6]; 50 mg/kg): 3.17

SMILES: NNC(=O)c1ccncc1 [Isoniazid, reference compound]
- Growth inhibition of M. tuberculosis 27294 [1]: +
- MIC (M. tuberculosis 27294): 0.25 µg/mL (≈ 1.82 µM)
- MIC [2, 10]: 0.25 µg/mL (≈ 1.82 µM)
- MIC [2, 9]: 0.125 to 0.25 µg/mL (≈ 0.911 to 1.82 µM)
- MIC (M. fortuitum): > 16 µg/mL
- MIC (M. kansasii): > 16 µg/mL
- MIC value (μg/ml) against the M. tuberculosis strain 103471 [7]: 0.25 µg/mL (≈ 1.82 µM)
- Reported LD50 [8]: 139 mg/kg
- Mean Log10 No. of CFU Lung [5, 11]: 2.93
- Mean Log10 No. of CFU Spleen [5, 11]: 2.91
- Mean Log10 no. of reduction Lung ([5]; Table III, 12.5 mg/kg): 1.55
- Mean Log10 no. of reduction Spleen ([5]; Table III, 12.5 mg/kg): 1.72
- Mean Log10 No. of CFU Lung [5, 12]: 2.16
- Mean Log10 No. of CFU Spleen [5, 12]: 2.21
- Mean Log10 no. of reduction Lung ([5]; Table III, 25 mg/kg): 2.36
- Mean Log10 no. of reduction Spleen ([5]; Table III, 25 mg/kg): 2.27
- Mean Log10 No. of CFU Lung [5, 13]: 1.95
- Mean Log10 No. of CFU Spleen [5, 13]: 2.12
- Mean Log10 no. of reduction Lung ([5]; Table III, 50 mg/kg): 2.53
- Mean Log10 no. of reduction Spleen ([5]; Table III, 50 mg/kg): 2.51
- Mean Log10 No. of CFU Lung [5, 14]: 2.89 ± 0.27
- Mean Log10 No. of CFU Spleen [5, 14]: 2.91 ± 0.42
- Mean Log10 No. of reduction Lung ([5]; Table VI, 12.5 mg/kg): 1.68
- Mean Log10 No. of reduction Spleen ([5]; Table VI, 12.5 mg/kg): 1.78
- Mean Log10 No. of CFU Lung [5, 15]: 2.23 ± 0.33
- Mean Log10 No. of CFU Spleen [5, 15]: 2.21 ± 0.44
- Mean Log10 No. of reduction Lung ([5]; Table VI, 25 mg/kg): 2.34
- Mean Log10 No. of reduction Spleen ([5]; Table VI, 25 mg/kg): 2.48
- Mean Log10 No. of CFU Lung [5, 16]: 2.02 ± 0.31
- Mean Log10 No. of CFU Spleen [5, 16]: 2.07 ± 0.33
- Mean Log10 No. of reduction Lung ([5]; Table VI, 50 mg/kg): 2.55
- Mean Log10 No. of reduction Spleen ([5]; Table VI, 50 mg/kg): 2.62
- Mean Log10 No. of CFU Lung ([6]; 12.5 mg/kg): 4.56 ± 0.24
- Mean Log10 No. of CFU Spleen ([6]; 12.5 mg/kg): 4.93 ± 0.42
- Mean Log10 no. of reduction Lung ([6]; 12.5 mg/kg): 1.03
- Mean Log10 no. of reduction Spleen ([6]; 12.5 mg/kg): 1.02
- Mean Log10 No. of CFU Lung ([6]; 25 mg/kg): 3.19 ± 0.6
- Mean Log10 No. of CFU Spleen ([6]; 25 mg/kg): 3.08 ± 0.44
- Mean Log10 no. of reduction Lung ([6]; 25 mg/kg): 2.4
- Mean Log10 no. of reduction Spleen ([6]; 25 mg/kg): 2.87
- Mean Log10 No. of CFU Lung ([6]; 50 mg/kg): 2.97 ± 0.46
- Mean Log10 No. of CFU Spleen ([6]; 50 mg/kg): 2.89 ± 0.27
- Mean Log10 no. of reduction Lung ([6]; 50 mg/kg): 2.62
- Mean Log10 no. of reduction Spleen ([6]; 50 mg/kg): 3.06
